# Experimental data reported in ChEMBL document CHEMBL1201862, “PubChem BioAssay data set” (2004).
#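 All cell lines were grown in 96-well plates and treated with compound for 48 hours. GI50 = concentration required for 50% inhibition of growth.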 Active and inactive are the calls of the source. Cut-off read from the data, not from the text of the source: active = GI50 up to about 1.1 µM and inactive = higher.
# Tests used:
# Experiment in all cases: NCI tumour cell line growth inhibition, 48 h
# [1] = tested on: CCRF-CEM
# [2] = tested on: EKVX
# [3] = tested on: HCT-15
# [4] = tested on: HOP-62
# [5] = tested on: HOP-92
# [6] = tested on: HT-29
# [7] = tested on: Hs-578T
# [8] = tested on: IGROV-1
# [9] = tested on: MDA-MB-231
# [10] = tested on: MDA-N
# [11] = tested on: NCI-H460
# [12] = tested on: NCI/ADR-RES
# [13] = tested on: OVCAR-3
# [14] = tested on: OVCAR-4
# [15] = tested on: OVCAR-5
# [16] = tested on: RXF 393
# [17] = tested on: SF-268
# [18] = tested on: SF-539
# [19] = tested on: SN12C
# [20] = tested on: TK-10
Compound,GI50 [1],GI50 [2],GI50 [3] [µM],GI50 [4],GI50 [5],GI50 [6],GI50 [7],GI50 [8],GI50 [9],GI50 [10],GI50 [11],GI50 [12],GI50 [13],GI50 [14],GI50 [15],GI50 [16],GI50 [17],GI50 [18],GI50 [19],GI50 [20]
CCCCCCCCCCCCCCC(O)C[N+](C)(CCO)CCO (stereo not given),1.57 µM (inactive),17.7 µM (inactive),5.96,2.19 µM (inactive),0.885 µM (active),2.12 µM (inactive),2.17 µM (inactive),1.15 µM (inactive),1.14 µM (inactive),5.86 µM (inactive),2.56 µM (inactive),20.3 µM (inactive),3.13 µM (inactive),3.73 µM (inactive),2.46 µM (inactive),1.41 µM (inactive),1.89 µM (inactive),2.4 µM (inactive),4.7 µM (inactive),1.39 µM (inactive)
O=C1CSC(c2ccccc2O)N1c1nc2cc3sc(N4C(=O)CSC4c4ccccc4O)nc3cc2s1 (stereo not given),3.93 µM (inactive),61.9 µM (inactive),7.05,> 100 µM (inactive),> 42.5 µM (inactive),20 µM (inactive),> 58.9 µM (inactive),18.9 µM (inactive),> 57.8 µM (inactive),34.8 µM (inactive),2.3 µM (inactive),8.47 µM (inactive),> 100 µM (inactive),44.1 µM (inactive),> 100 µM (inactive),> 100 µM (inactive),> 86.9 µM (inactive),59.6 µM (inactive),> 40.5 µM (inactive),> 100 µM (inactive)
Cc1cccc(Nc2nc3ccccc3nc2NS(=O)(=O)c2ccccc2)c1,18.2 µM (inactive),30.5 µM (inactive),16,27.5 µM (inactive),11 µM (inactive),26.6 µM (inactive),33 µM (inactive),19.9 µM (inactive),39.5 µM (inactive),42.9 µM (inactive),15.6 µM (inactive),20 µM (inactive),19 µM (inactive),2.14 µM (inactive),> 100 µM (inactive),27.7 µM (inactive),44.3 µM (inactive),33.8 µM (inactive),22.2 µM (inactive),22.9 µM (inactive)
Cc1ccccc1NC(=O)O/N=C(\Cl)C(C)C,1.48 µM (inactive),2.29 µM (inactive),2.09,17.3 µM (inactive),2.28 µM (inactive),5.56 µM (inactive),22.3 µM (inactive),9.42 µM (inactive),17.7 µM (inactive),2.72 µM (inactive),17.8 µM (inactive),16.5 µM (inactive),4.29 µM (inactive),8.45 µM (inactive),20.9 µM (inactive),12.6 µM (inactive),19.3 µM (inactive),9.08 µM (inactive),1.62 µM (inactive),3.94 µM (inactive)
COC(=O)Nc1nc2cc(NS(=O)(=O)c3ccc(F)cc3)ccc2[nH]1,13.7 µM (inactive),31.3 µM (inactive),8.22,43.3 µM (inactive),10.5 µM (inactive),7.73 µM (inactive),2.07 µM (inactive),2.15 µM (inactive),21.9 µM (inactive),2.14 µM (inactive),24.7 µM (inactive),13.3 µM (inactive),2.8 µM (inactive),33.9 µM (inactive),45.2 µM (inactive),18.5 µM (inactive),72.6 µM (inactive),12.2 µM (inactive),68.9 µM (inactive),14.4 µM (inactive)
C[C@H](N)C(=O)Nc1ccc(-c2nc3ccccc3s2)cc1,10.2 µM (inactive),11.8 µM (inactive),17.7,26.5 µM (inactive),26.4 µM (inactive),20.9 µM (inactive),37.8 µM (inactive),15.2 µM (inactive),18.4 µM (inactive),18.7 µM (inactive),16.9 µM (inactive),28.6 µM (inactive),18.3 µM (inactive),16.4 µM (inactive),18.7 µM (inactive),29.3 µM (inactive),41.3 µM (inactive),36.9 µM (inactive),24.8 µM (inactive),24.5 µM (inactive)
CCOc1cc(NC(C)=O)ccc1C(=O)NN1C(=O)C(Cl)C1c1ccco1 (stereo not given),4.58 µM (inactive),17.9 µM (inactive),19.1,17.9 µM (inactive),19.1 µM (inactive),19.1 µM (inactive),21.8 µM (inactive),13.1 µM (inactive),16.6 µM (inactive),14.4 µM (inactive),17.3 µM (inactive),33.7 µM (inactive),16.9 µM (inactive),14.9 µM (inactive),20.6 µM (inactive),12.3 µM (inactive),16.1 µM (inactive),14.9 µM (inactive),14.5 µM (inactive),17.4 µM (inactive)
O=C1N[C@H]2C(=O)c3c(Cl)sc(Cl)c3[C@H]2O1,0.774 µM (active),2 µM (inactive),3.86,16.5 µM (inactive),7.45 µM (inactive),2.46 µM (inactive),23.2 µM (inactive),4.69 µM (inactive),14.1 µM (inactive),5.06 µM (inactive),18.1 µM (inactive),20.1 µM (inactive),1.92 µM (inactive),2.15 µM (inactive),19.4 µM (inactive),3.42 µM (inactive),4.8 µM (inactive),5.85 µM (inactive),10.9 µM (inactive),29.2 µM (inactive)
COc1cc2c(c(OC)c1OC)C(=O)[C@@H]1[C@H]2N1C(=O)NCCCl,30.1 µM (inactive),53 µM (inactive),36.1,> 100 µM (inactive),> 100 µM (inactive),36 µM (inactive),61.2 µM (inactive),33.5 µM (inactive),> 100 µM (inactive),32.4 µM (inactive),40.6 µM (inactive),> 100 µM (inactive),38.4 µM (inactive),52.4 µM (inactive),> 100 µM (inactive),53.3 µM (inactive),76.9 µM (inactive),72.4 µM (inactive),54.7 µM (inactive),> 100 µM (inactive)
CN1/C(=C/C=C/C=C/C=C2C(=O)c3ccccc3C2=O)C(C)(C)c2ccccc21,> 100 µM (inactive),30.8 µM (inactive),40.2,> 100 µM (inactive),15.7 µM (inactive),> 100 µM (inactive),29.9 µM (inactive),39.6 µM (inactive),10.3 µM (inactive),35.6 µM (inactive),53.5 µM (inactive),76.2 µM (inactive),20 µM (inactive),75.3 µM (inactive),33 µM (inactive),24.2 µM (inactive),43.3 µM (inactive),26.1 µM (inactive),> 100 µM (inactive),> 100 µM (inactive)
CNc1cc2oc(=O)cc(C)c2cc1C,> 100 µM (inactive),59.6 µM (inactive),> 100,> 100 µM (inactive),89.3 µM (inactive),> 100 µM (inactive),79.1 µM (inactive),> 100 µM (inactive),> 100 µM (inactive),> 100 µM (inactive),> 100 µM (inactive),> 100 µM (inactive),> 100 µM (inactive),> 100 µM (inactive),> 100 µM (inactive),> 100 µM (inactive),> 100 µM (inactive),> 100 µM (inactive),> 100 µM (inactive),86.3 µM (inactive)
CN1CCN([C@H]2C[C@H]3[C@@H]4CC=C5C[C@@H](N6CCCC6)CC[C@]5(C)[C@H]4CC[C@]3(C)[C@H]2O)CC1,38.6 µM (inactive),> 100 µM (inactive),38.4,51.1 µM (inactive),84.9 µM (inactive),8 µM (inactive),> 100 µM (inactive),67.8 µM (inactive),74.6 µM (inactive),19 µM (inactive),71.8 µM (inactive),> 100 µM (inactive),> 100 µM (inactive),> 100 µM (inactive),50.2 µM (inactive),10.7 µM (inactive),32.7 µM (inactive),16.2 µM (inactive),> 100 µM (inactive),> 100 µM (inactive)
O=C1c2c(Br)sc(Br)c2[C@@H](NC(=O)C(F)(F)F)C1Br (stereo not given in full),1.88 µM (inactive),3.57 µM (inactive),1.83,12.9 µM (inactive),2.3 µM (inactive),2.37 µM (inactive),7.94 µM (inactive),2.92 µM (inactive),2.79 µM (inactive),2.87 µM (inactive),11.7 µM (inactive),3.32 µM (inactive),3.32 µM (inactive),2.31 µM (inactive),10.7 µM (inactive),2.14 µM (inactive),3.71 µM (inactive),2.73 µM (inactive),2.72 µM (inactive),16.8 µM (inactive)
CCCCCCCCCCCCc1ccc(S(=O)(=O)O)cc1,> 100 µM (inactive),> 100 µM (inactive),> 100,> 100 µM (inactive),88.1 µM (inactive),> 100 µM (inactive),> 100 µM (inactive),11.5 µM (inactive),> 100 µM (inactive),> 100 µM (inactive),> 100 µM (inactive),> 100 µM (inactive),> 100 µM (inactive),> 100 µM (inactive),> 100 µM (inactive),> 100 µM (inactive),> 100 µM (inactive),> 100 µM (inactive),> 100 µM (inactive),> 100 µM (inactive)
